Data: US11040033B2 (Gilead Sciences, Inc., priority 2017, dated 2021)

Molecular target: T1, IDO1 (Homo sapiens, UniProt P14902)
T1 construct: HeLa cells were treated with a test compound in the presence of IFNγ, which induces IDO1 expression; endogenous in cells; host or cells: H1-HeLa cells (ATCC #CRL-1958), induced with IFNγ
Test: Cell-based (HeLa) assay for measurement of IDO1 inhibition (kynurenine levels in supernatant after IFNγ induction)
Conditions: H1-HeLa cells, IFNγ-induced IDO1, 48 hour incubation, kynurenine absorbance at 480 nm; geometric mean of a minimum of four determinations
Procedure: To measure IDO1 inhibition in tissue culture, HeLa cells were treated with a test compound in the presence of IFNγ, which induces IDO1 expression. Following incubation, cell supernatants were assayed for kynurenine levels, an indicator of IDO1 activity.
H1-HeLa cells (ATCC #CRL-1958) were seeded in 384-well plates (Greiner #82051-282) at a volume […] (Corning #15-018-CM) supplemented with 10% FBS (Corning #35-011-CV) and 1% P/S/G (Corning #30-009-CL) at a density of 1,250 cells/well and incubated overnight at 37° C., 5% CO2/100% humidity. The following day, the test compounds were added in DMSO (0.5% final) at various concentrations, and IDO1 was inducibly expressed by the addition of 50 uL/well of 50 ng/mL of INFγ(Peprotech #300-02) in cell plating media. As a positive control, 50 uL of the cell plating media without IFNγ was added to several wells. Following a 48 hour incubation, the plates were spun down at 1,200 RPM for 5 min at 10° C. 65 μL/well of the supernatant was then transferred to new 384-well plates (Thermo #262160) that contained 10 uL/well of 30% TCA (Sigma #T0699), and the plates were sealed and incubated at 60° C. for 30 min. The plates were then centrifuged for 15 min at 2,000 RPM at 10° C. 40 μL/well of the supernatant was transferred to new 384-well plates (Thermo #262160) and was reacted with 40 μL/well of 2% (w/v) p-dimethylaminobenzaldehyde (Sigma #156417) in glacial acetic acid (Sigma #A6283). The reaction was incubated at room temperature for 10 min and absorbance at 480 nm was read using a PerkinElmer Envision plate reader.
Data in Table 1 were normalized based on positive (−IFNγ) and negative (+IFNγ) controls and EC50 values were calculated from the fit of the dose-response curves to a four-parameter equation. All EC50 values represent geometric mean values of a minimum of four determinations. These assays generally produced results within 2-fold of the reported mean.

T1 sequence (P14902 whole entry): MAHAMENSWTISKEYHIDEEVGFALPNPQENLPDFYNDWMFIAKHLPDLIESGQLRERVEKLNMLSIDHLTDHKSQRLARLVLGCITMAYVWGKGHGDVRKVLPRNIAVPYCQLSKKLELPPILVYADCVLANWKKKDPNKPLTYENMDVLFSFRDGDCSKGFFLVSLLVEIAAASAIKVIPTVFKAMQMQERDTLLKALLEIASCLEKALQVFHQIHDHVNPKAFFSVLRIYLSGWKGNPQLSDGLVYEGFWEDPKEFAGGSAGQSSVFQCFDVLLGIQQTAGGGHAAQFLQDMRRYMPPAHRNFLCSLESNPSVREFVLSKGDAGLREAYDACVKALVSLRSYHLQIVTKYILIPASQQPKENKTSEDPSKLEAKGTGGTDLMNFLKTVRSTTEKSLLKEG

EC50	Structure (SMILES)
12.2 nM	O=C(Nc1ccc(F)cc1)c1cc(-c2cccn3c(-c4cccc(F)c4F)ncc23)ccc1Cl [Example 70, 2-chloro-5-(3-(2,3-difluorophenyl)imidazo[1,5-a]pyridin-8-yl)-N-(4-fluorophenyl)benzamide]
2380 nM	Cc1cccc(-c2ncc3c(-c4ccc(C)c(C(=O)Nc5ccc(F)cc5)c4)nccn23)c1 [Example 53, N-(4-fluorophenyl)-2-methyl-5-(3-(m-tolyl)imidazo[1,5-a]pyrazin-8-yl)benzamide]
2630 nM	Cc1ccc(-c2nccn3c(-c4ccccn4)ncc23)cc1C(=O)Nc1ccc(F)cc1 [Example 54, N-(4-fluorophenyl)-2-methyl-5-(3-(pyridin-2-yl)imidazo[1,5-a]pyrazin-8-yl)benzamide]
85.7 nM	Cc1cnc(-c2cccn3c(-c4cccc(F)c4F)ncc23)cc1C(=O)Nc1ccc(F)cc1 [Example 56, 2-(3-(2,3-difluorophenyl)imidazo[1,5-a]pyridin-8-yl)-N-(4-fluorophenyl)-5-methylisonicotinamide]
307 nM	Cc1ncc(-c2cccn3c(-c4cccc(F)c4F)ncc23)cc1C(=O)Nc1ccc(F)c(Br)c1 [Example 63, N-(3-bromo-4-fluorophenyl)-5-(3-(2,3-difluorophenyl)imidazo[1,5-a]pyridin-8-yl)-2-methylnicotinamide]
75.3 nM	Cc1c(F)cc(-c2cccn3c(-c4cccc(F)c4F)ncc23)cc1C(=O)Nc1ccc(F)cc1 [Example 84]
3110 nM	Cc1ccc(-c2nccn3c(-c4ccccc4C)ncc23)cc1C(=O)Nc1ccc(F)cc1 [Example 52, N-(4-fluorophenyl)-2-methyl-5-(3-(o-tolyl)imidazo[1,5-a]pyrazin-8-yl)benzamide]
656 nM	Cc1cc(NC(=O)c2cc(-c3cccn4c(-c5cccc(F)c5F)ncc34)cnc2C)ccn1 [Example 71, 5-(3-(2,3-difluorophenyl)imidazo[1,5-a]pyridin-8-yl)-2-methyl-N-(2-methylpyridin-4-yl)nicotinamide]
36.6 nM	Fc1ccc2[nH]c(-c3cc(-c4cccn5c(-c6cccc(F)c6F)ncc45)cnc3C(F)(F)F)nc2c1 [Example 98, 2-(5-(3-(2,3-difluorophenyl)imidazo[1,5-a]pyridin-8-yl)-2-(trifluoromethyl)pyridin-3-yl)-5-fluoro-1H-benzo[d]imidazole]
21.1 nM	Cc1ncc(-c2cccn3c(-c4cccc(F)c4F)ncc23)cc1C(=O)Nc1ccc(F)cn1 [Example 60, 5-(3-(2,3-difluorophenyl)imidazo[1,5-a]pyridin-8-yl)-N-(5-fluoropyridin-2-yl)-2-methylnicotinamide]

Continued, compound first:

Structure (SMILES)	EC50
Cc1ncc(-c2cccn3c(-c4ccccc4F)ncc23)cc1C(=O)Nc1ccc(F)cc1 [Example 49, N-(4-fluorophenyl)-5-(3-(2-fluorophenyl)imidazo[1,5-a]pyridin-8-yl)-2-methylnicotinamide]	15.7 nM
Cc1cccc(-c2ncc3c(-c4cnc(C)c(C(=O)Nc5ccc(F)cc5)c4)cccn23)c1 [Example 22, N-(4-fluorophenyl)-2-methyl-5-(3-(m-tolyl)imidazo[1,5-a]pyridin-8-yl)nicotinamide]	135 nM
Cc1ccc(-c2cccn3c(-c4cccc(F)c4F)ncc23)c(F)c1C(=O)Nc1ccc(F)cc1 [Example 42, 3-(3-(2,3-difluorophenyl)imidazo[1,5-a]pyridin-8-yl)-2-fluoro-N-(4-fluorophenyl)-6-methylbenzamide]	17.7 nM
Cc1ccc(-c2cccn3c(-c4ccccc4)nnc23)cc1C(=O)Nc1ccc(F)cc1 [Example 9, N-(4-fluorophenyl)-2-methyl-5-(3-phenyl-[1,2,4]triazolo[4,3-a]pyridin-8-yl)benzamide]	809 nM
O=C(Nc1ccc(F)cc1)c1cc(-c2cccn3c(-c4ncco4)ncc23)ccc1C(F)(F)F [Example 46, N-(4-fluorophenyl)-5-(3-(oxazol-2-yl)imidazo[1,5-a]pyridin-8-yl)-2-(trifluoromethyl)benzamide]	16.1 nM
Cc1ccc(-c2cccn3c(-c4ccccc4C)nnc23)cc1C(=O)Nc1ccc(F)cc1 [Example 12, N-(4-fluorophenyl)-2-methyl-5-(3-(o-tolyl)-[1,2,4]triazolo[4,3-a]pyridin-8-yl)benzamide]	403 nM
Cn1nncc1-c1ncc2c(-c3ccc(C(F)(F)F)c(C(=O)Nc4ccc(F)cc4)c3)cccn12 [Example 8, N-(4-fluorophenyl)-5-(3-(1-methyl-1H-1,2,3-triazol-5-yl)imidazo[1,5-a]pyridin-8-yl)-2-(trifluoromethyl)benzamide]	1200 nM
Cc1ccc(-c2cccn3c(-c4cn(C)cn4)ncc23)cc1C(=O)Nc1ccc(F)cc1 [Example 14, N-(4-fluorophenyl)-2-methyl-5-(3-(1-methyl-1H-imidazol-4-yl)imidazo[1,5-a]pyridin-8-yl)benzamide]	322 nM
Cc1ncc(-c2cccn3c(-c4cc(F)ccn4)ncc23)cc1C(=O)Nc1ccc(F)cc1 [Example 23, N-(4-fluorophenyl)-5-(3-(4-fluoropyridin-2-yl)imidazo[1,5-a]pyridin-8-yl)-2-methylnicotinamide]	112 nM
Cc1ncc(-c2cccn3c(-c4c(F)cccc4F)ncc23)cc1C(=O)Nc1ccc(F)cc1 [Example 24, 5-(3-(2,6-difluorophenyl)imidazo[1,5-a]pyridin-8-yl)-N-(4-fluorophenyl)-2-methylnicotinamide]	104 nM
Cc1ccc(-c2cccn3c(-c4ncccn4)ncc23)cc1C(=O)Nc1ccc(F)cc1 [Example 37, N-(4-fluorophenyl)-2-methyl-5-(3-(pyrimidin-2-yl)imidazo[1,5-a]pyridin-8-yl)benzamide]	24.2 nM
O=C(Nc1ccc(F)cc1)c1cc(-c2cccn3c(-c4ccnc5ccccc45)ncc23)ccc1C(F)(F)F [Example 21, N-(4-fluorophenyl)-5-(3-(quinolin-4-yl)imidazo[1,5-a]pyridin-8-yl)-2-(trifluoromethyl)benzamide]	183 nM
Cc1ncc(-c2cccn3c(-c4ncccn4)ncc23)cc1C(=O)Nc1ccc(F)cc1 [Example 25, N-(4-fluorophenyl)-2-methyl-5-(3-(pyrimidin-2-yl)imidazo[1,5-a]pyridin-8-yl)nicotinamide]	69 nM
O=C(Nc1ccc(F)cc1)c1cc(-c2cccn3c(-c4cccc(F)c4F)ncc23)cnc1C(F)(F)F [Example 47, 5-(3-(2,3-difluorophenyl)imidazo[1,5-a]pyridin-8-yl)-N-(4-fluorophenyl)-2-(trifluoromethyl)nicotinamide]	16 nM
Cc1ccc(-c2cccn3c(-c4cccnc4C)nnc23)cc1C(=O)Nc1ccc(F)cc1 [Example 4, N-(4-fluorophenyl)-2-methyl-5-(3-(2-methylpyridin-3-yl)-[1,2,4]triazolo[4,3-a]pyridin-8-yl)benzamide]	2160 nM
Cc1ncc(-c2cccn3c(-c4ccccc4C(F)(F)F)ncc23)cc1C(=O)Nc1ccc(F)cc1 [Example 16, N-(4-fluorophenyl)-2-methyl-5-(3-(2-(trifluoromethyl)phenyl)imidazo[1,5-a]pyridin-8-yl)nicotinamide]	239 nM
Cn1cnc(-c2ncc3c(-c4ccc(C(F)(F)F)c(C(=O)Nc5ccc(F)cc5)c4)cccn23)c1 [Example 13, N-(4-fluorophenyl)-5-(3-(1-methyl-1H-imidazol-4-yl)imidazo[1,5-a]pyridin-8-yl)-2-(trifluoromethyl)benzamide]	365 nM
